Test results: patent publication US20260226068A1, “IMIDAZOTRIAZINE IL-17A MODULATORS AND USES THEREOF” (DICE ALPHA, INC., priority 2023, published 2026)
pIC50: −log10 of the molar value.

Key:
[1] = biological target: T1, IL-17A/F (Homo sapiens, UniProt Q16552+Q96PD4); test: IL-17A/F HEK-Blue cell assay (SEAP reporter); format: cell-based; settings: HEK-Blue IL-17A reporter cells, IL17A/F 5 ng/mL, 20 hours, SEAP read at A630; read-out: HEK-Blue IL17AF (IC50 for IL-17A/F inhibition)
T1 construct: purchased R&D Systems
T1 sequence (Q16552 24-155): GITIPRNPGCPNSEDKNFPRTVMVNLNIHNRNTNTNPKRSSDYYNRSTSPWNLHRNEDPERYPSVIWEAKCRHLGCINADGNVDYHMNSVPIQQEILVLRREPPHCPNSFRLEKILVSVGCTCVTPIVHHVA
T1 sequence (Q96PD4 31-163): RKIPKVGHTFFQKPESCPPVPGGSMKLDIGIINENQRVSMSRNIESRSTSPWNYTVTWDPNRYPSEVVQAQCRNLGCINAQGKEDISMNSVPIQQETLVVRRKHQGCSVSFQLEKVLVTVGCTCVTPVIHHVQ

[2] = biological target: T2, IL-17A/A (Homo sapiens, UniProt Q16552); test: IL-17A/A HEK-Blue cell assay (SEAP reporter); format: cell-based; settings: HEK-Blue IL-17A reporter cells, IL17A/A 5 ng/mL, 20 hours, SEAP read at A630; read-out: HEK-Blue IL17AA (IC50 for IL-17A/A inhibition)
T2 construct: purchased Genscript Z03228
T2 sequence (Q16552 24-155): T1 sequence (Q16552 24-155)

SMILES | pIC50 [1] | pIC50 [2]
Cc1nonc1C(=O)N[C@H](c1cn2nc(C[C@H]3C[C@@H](C(F)(F)F)CNC3=O)c(C3CCOCC3)nc2n1)[C@H]1C[C@H]2C[C@H]2C1 [Compound 316, N—((S)-((1R,3r,5S)-bicyclo[3.1.0]hexan-3-yl)(2-(((3R,5R)-2-oxo-5-(trifluoromethyl)piperidin-3-yl)methyl)-3-(tetrahydro-2H-pyran-4-yl)imidazo[1,2-b][1,2,4]triazin-6-yl)methyl)-4-methyl-1,2,5-oxadiazole-3-carboxamide] | < 6.00 | 6.00 to 7.00
CCc1nonc1C(=O)N[C@H](c1cn2nc(C[C@H]3C[C@@H](C(F)(F)F)CNC3=O)c(C3CCOCC3)nc2n1)[C@H]1C[C@H]2C[C@H]2C1 [Compound 317, N—((S)-((1R,3r,5S)-bicyclo[3.1.0]hexan-3-yl)(2-(((3R,5R)-2-oxo-5-(trifluoromethyl)piperidin-3-yl)methyl)-3-(tetrahydro-2H-pyran-4-yl)imidazo[1,2-b][1,2,4]triazin-6-yl)methyl)-4-ethyl-1,2,5-oxadiazole-3-carboxamide] | < 6.00 | 6.00 to 7.00
Cc1nonc1C(=O)N[C@H](c1cn2nc(C[C@H]3C[C@@H](C(F)(F)F)CNC3=O)c(C3CCOCC3)nc2n1)[C@H]1C[C@H](C2CC2)C1 [Compound 318, N—((S)-((1r,3S)-3-cyclopropylcyclobutyl)(2-(((3R,5R)-2-oxo-5-(trifluoromethyl)piperidin-3-yl)methyl)-3-(tetrahydro-2H-pyran-4-yl)imidazo[1,2-b][1,2,4]triazin-6-yl)methyl)-4-methyl-1,2,5-oxadiazole-3-carboxamide] | < 6.00 | > 7.00
CCc1nonc1C(=O)N[C@H](c1cn2nc(C[C@H]3C[C@@H](C(F)(F)F)CNC3=O)c(C3CCOCC3)nc2n1)[C@H]1C[C@H](C2CC2)C1 [Compound 319, N—((S)-((1r,3S)-3-cyclopropylcyclobutyl)(2-(((3R,5R)-2-oxo-5-(trifluoromethyl)piperidin-3-yl)methyl)-3-(tetrahydro-2H-pyran-4-yl)imidazo[1,2-b][1,2,4]triazin-6-yl)methyl)-4-ethyl-1,2,5-oxadiazole-3-carboxamide] | < 6.00 | > 7.00
Cn1nccc1C(=O)N[C@H](c1cn2nc(C[C@H]3C[C@@H](C(F)(F)F)CNC3=O)c(C3CCOCC3)nc2n1)C(C1CC1)C1CC1 [Compound 320, N—((S)-2,2-dicyclopropyl-1-(2-(((3R,5R)-2-oxo-5-(trifluoromethyl)piperidin-3-yl)methyl)-3-(tetrahydro-2H-pyran-4-yl)imidazo[1,2-b][1,2,4]triazin-6-yl)ethyl)-1-methyl-1H-pyrazole-5-carboxamide] | 6.00 to 7.00 | > 7.00

The remaining lines, values ahead:

pIC50 [1] | pIC50 [2] | SMILES
< 6.00 | > 7.00 | CCn1nccc1C(=O)N[C@H](c1cn2nc(C[C@H]3CC(F)(F)CNC3=O)c(C3CCOCC3)nc2n1)C(C1CC1)C1CC1 [Compound 323]
6.00 to 7.00 | > 7.00 | CCn1nccc1C(=O)N[C@H](c1cn2nc(C[C@H]3C[C@@H](C(F)(F)F)CNC3=O)c(N3CCOCC3)nc2n1)C1CCCCC1 [Compound 326, N—((S)-cyclohexyl(3-morpholino-2-(((3R,5R)-2-oxo-5-(trifluoromethyl)piperidin-3-yl)methyl)imidazo[1,2-b][1,2,4]triazin-6-yl)methyl)-1-ethyl-1H-pyrazole-5-carboxamide]
< 6.00 | > 7.00 | CCc1nonc1C(=O)N[C@H](c1cn2nc(C[C@H]3C[C@@H](C(F)(F)F)CNC3=O)c(N3CCOCC3)nc2n1)C1CCCCC1 [Compound 327, N—((S)-cyclohexyl(3-morpholino-2-(((3R,5R)-2-oxo-5-(trifluoromethyl)piperidin-3-yl)methyl)imidazo[1,2-b][1,2,4]triazin-6-yl)methyl)-4-ethyl-1,2,5-oxadiazole-3-carboxamide]
6.00 to 7.00 | > 7.00 | CCn1nccc1C(=O)N[C@H](c1cn2nc(C[C@@H]3CC(F)(F)CNC3=O)c(C3CCOCC3)nc2n1)C(C1CC1)C1CC1 [Compound 328]
